Where two headings read alike, the source gives them in different places.
System: Septoria tritici
Assay: Tests N1 and N2: growth inhibition of Septoria tritici on solid medium in 96-well plates, absorbance at 600 nm, observed and Colby expected
Assay type: cell-based
Details: Zymoseptoria tritici; for inhibition at 0.00032 µM: Compound 81 alone 0.00032 μM; for inhibition at 0.0016 µM: Compound 81 alone 0.0016 μM; for inhibition at 0.008 µM: Compound 81 alone 0.008 μM; for inhibition at 0.04 µM: Compound 81 alone 0.04 μM; for inhibition at 0.2 µM: Compound 81 alone 0.2 μM
Source text: Tests N1 and N2 involved evaluation of mixtures of Compound 81 with 2-[(3-bromo-8-methyl-6-quinolinyl)oxy]-N-(1,1-dimethyl-2-propyn-1-yl)-2-(methylthio)acetamide (Compound A1) and 2-[(3-bromo-6-quinolinyl)oxy]-N-(1,1-dimethylethyl)butanamide (Compound A2), respectively, for inhibiting the growth of Septoria tritici (the causal agent of wheat leaf blotch). The general protocol for preparing test compositions was as follows. Compound 81 (Tests N1 and N2), Compound A1 (Test N1) and Compound A2 (Test N2) were obtained as unformulated, technical-grade materials. Unformulated test compounds were first dissolved in DMSO at the appropriate concentration to provide the desired concentration (in μM) after mixing with the fungal growth medium in the wells of 96-well plates containing 200 μL fungal growth medium per well. The ranges of compound concentrations were chosen to span a range of inhibitory activity from 0 to near 100% to identify any synergistic action when Septoria tritici was treated with compounds added in combination. The DMSO solutions of the test compounds were added to the wells prior to addition of the fungal growth medium.
The fungal growth solid medium was prepared by forming an aqueous mixture containing dipotassium hydrogen phosphate (3.0 g/L), potassium dihydrogen phosphate (4.0 g/L), sodium chloride (0.5 g/L), ammonium chloride (1.0 g/L), magnesium sulfate heptahydrate ([…]) and calcium chloride dihydrate (0.01 g/L), also containing 1 mL/L of a trace element solution (manganese sulfate hydrate (0.1 mg/mL), zinc sulfate heptahydrate (0.2 mg/mL), copper(II) sulfate pentahydrate (0.2 mg/mL), iron(II) sulfate heptahydrate (0.2 mg/mL), sodium molybdate dihydrate (0.1 mg/mL), cobalt(II) sulfate heptahydrate (0.06 mg/mL), boric acid (0.08 mg/mL)), and supplemented with 50 μL/L of a biotin stock solution (0.1 mg/mL). The pH was adjusted to 6.8 with aqueous 1 M sodium carbonate solution. The mixture was further supplemented with 1 g/L of yeast extract, and GELRITE gellan gum (Kelco) (4 g/L) was added. Sufficient water was added to bring the volume to 90% of final volume (e.g., 900 mL volume for preparation of 1 L of fungal growth medium). The mixture was autoclaved. On cooling to 60° C., 100 mL/L of aqueous dextrose solution (10 g/L), 500 μL/L of aqueous ampicillin solution (100 mg/mL) and 500 μL/L of rifampicin solution (10 mg/mL in DMSO) were added to provide the final volume of fungal growth medium, which was then dispensed while still warm using a microliter pipette to the wells of the 96-well plates. The dispensed fungal growth medium in each well was agitated using the tip of the dispensing pipette to mix it with the DMSO solution containing the test compounds.
After the fungal growth medium in the wells had cooled to room temperature and solidified, the top surface of the growth medium in each well was inoculated with 20 μL of a suspension of fungus containing 8×10^4 cells. Following a 2 h period of drying in a sterile hood, plates were placed in a dark incubator at 25° C. for 5 d.
Fungal growth was assessed on a plate reader set to measure absorbance of 600 nm light. The percent growth inhibition observed (Obsd.) in Tests N1 and N2, as well as the percent growth inhibition expected (Exp.) from calculation using the Colby equation, are listed in Tables L and M, respectively.

[1] = read-out: % inhibition Obsd. (Test N1)
[2] = read-out: % inhibition Obsd. (Test N2)

SMILES: Cc1nn(C)c(Nc2c(F)cc(Cl)cc2F)c1-c1ccc(F)cc1Cl [Compound 81, N-(4-chloro-2,6-difluorophenyl)-4-(2-chloro-4-fluorophenyl)-1,3-dimethyl-1H-pyrazole-5-amine]
- inhibition at 0.00032 µM [1]: 9%
- inhibition at 0.00032 µM [2]: 0%
- inhibition at 0.0016 µM [1]: 5%
- inhibition at 0.0016 µM [2]: 0%
- inhibition at 0.008 µM [1]: 10%
- inhibition at 0.008 µM [2]: 29%
- inhibition at 0.04 µM [1]: 93.5%
- inhibition at 0.04 µM [2]: 93.5%
- inhibition at 0.2 µM [1]: 98%
- inhibition at 0.2 µM [2]: 96%
